Ten compounds from patent US4571405A, “Anti-allergic chromone- or thiochromone-5-oxamic acid derivatives, compositions, and method of use therefor” (Miles Laboratories, Inc., priority 1984, dated 1986) can be followed below.

Assay [1] deals with passive cutaneous anaphylaxis reaction (PCA reaction). Description: Passive cutaneous anaphylaxis reaction (PCA reaction), intravenous, rats. In kind it is in vivo, Male Lister-Hooded rats. As to conditions: for ED50: Rattus norvegicus, iv. How it is done:
(§1) The antiallergic activity of the compounds of the present invention was determined by a passive cutaneous anaphylaxis reaction (PCA reaction) which was conducted as described in Life Sciences, 1, p. 465 (1963) and Immunology, 12, p. 113 (1967) both of which are incorporated herein by reference. Male Lister-Hooded rats were depilated and injected intradermally with a dilution of rat serum containing IgE antibody against ovalbumin. Twenty-four hours later the rats were challenged with an intravenous injection of the antigen (ovalbumin) and a blue indicator dye. The intensity of the passive cutaneous anaphylactic reaction was determined by observing the size of discrete blue sites (from the indicator) on the backs of the rats. Simultaneous with the challenge, one group of the rats was injected (intravenously) with various concentrations of test compounds (i.e., compounds of formula I), in order to determine the 50 percent inhibitory concentration (IC50) for each of said compounds tested. The other group of rats was administered intravenous sodium cromoglycate (SCG), a known antiallergic agent and thus served as a positive control. The results of this test are set forth in Table 1 where the IC50 for the test compounds and SCG are expressed irn micromoles per kiligram of body weight.

For another assay, the system named is PCA reaction. Briefly: Oral activity in PCA reaction (intragastric dose), rats. In kind it is in vivo, Male Lister-Hooded rats. As to conditions: 30 mg/kg intragastrically, thirty minutes prior to antigen challenge, relative to control; for inhibition at 30 mg/kg: Rattus norvegicus, po, read-out: Percent Inhibition of PCA Reaction. Here is the method: as §1
Following substantially the same technique as described above, the oral activity of various test compounds (i.e., compounds of formula I) was determined. Thirty minutes prior to the antigen challenge described above, a dose of 30 mg/kg of one of the test compounds was administered intragastrically and the percent inhibition of the percutaneous anaphylactic reaction was determined (as compared to control animals where no test compound was administered). The results of this test are set forth in Table 2 and are expressed as percent inhibition of anaphylaxis relative to control.

For a further assay, the system named is mast cells. Description: Inhibition of antigen-induced histamine (spasmogen) release from passively sensitized peritoneal mast cells. In kind it is cell-based, rats. Here is the method: Peritoneal mast cells passively sensitized to antigen (dinitrophenyl-ovalbumin) 24 hours previously were obtained by lavage. Pools of cells were prepared from ten or more rats and aliquots (100 μl) were dispensed into polyethylene tubes. To each tube was added one of the test compounds at a concentration shown in Table 3 together with a constant dose (1 μg) of antigen (dinitrophenyl-bovine serum albumin). Each treatment was repeated in at least three tubes. All of the tubes were incubated at 37° C. for 10 minutes. The mast cells were sedimented by centrifugation and the supernatant fluid removed. The concentration of histamine released as a result of the addition of antigen was determined fluorimetrically and comparisons made with the concentration of histamine released in the absence of drug using the formula: [formula] where d=histamine release in presence of test compound,
a=histamine release in presence of antigen along
s=histamine release in presence of saline or drug vehicle (i.e., control).
The results of this test are set forth in Table 3 and are expressed as a percent inhibition of spasmogen release for each concentration (in moles) of the test compound utilized in the above-described procedure.

Where [2] appears, read: simultaneous with antigen (ovalbumin) challenge, per kilogram of body weight, read-out: INHIBITION OF PCA REACTION IC50, Compound of Example No.

“And” between values parts separate entries of the source, which are not always exact repeats. Identical values can stand only once. Like-named read-outs stand apart in the source and are kept apart here.

Take `O=C(O)C(=O)Nc1cccc2oc3c(c(=O)c12)CCCC3` [2,3cyclohexenochromone-5-oxamic acid, 2,3-cyclohexenochromone-5-oxamic acid]: the “INHIBITION OF PCA REACTION IC50, Compound of Example No.” value in assay [1] (intravenous, simultaneous with antigen (ovalbumin) challenge, per kilogram of body weight, listed as 2,3cyclohexeneochromone-5-oxamic acid) was 11.2 micromoles/kilogram.
On to `O=C(O)C(=O)Nc1cccc2oc3c(c(=O)c12)CCCC3` [Example I, Sodium 2,3-cyclohexenochromone-5-oxamate], for which the inhibition – broadly, the change of the read-out against control, counted positive when it falls – at 30 mg/kg in the assay on PCA reaction came out at 27%. Besides, the ED50 in assay [1] (setting [2]) stood at 10.4 µmol/kg. The “Percent Inhibition of Mast Cell Histamine Release” value is recorded as 85.7% in the assay on mast cells (10^-2 (moles)); 78.6% in the assay with mast cells (10^-3 (moles)); 10.9% in the assay with mast cells (10^-4 (moles)); 12.6% in the assay on mast cells (10^-5 (moles)); 12.0% in the assay with mast cells (10^-6 (moles)).
Regarding `CC1(C)CCc2sc3cccc(NC(=O)C(=O)O)c3c(=O)c2C1` [Example V, Sodium 2,3-(4',4'-dimethylcyclohexeno)thiochromone-5-oxamate], in the assay with PCA reaction, the inhibition at 30 mg/kg is 14%. The ED50 in assay [1] (setting [2]) is 10 µmol/kg. Also, the “Percent Inhibition of Mast Cell Histamine Release” value with mast cells (10^-2 (moles)) is recorded as 96.7%; with mast cells (10^-3 (moles)) it was 74.8%; in the assay on mast cells (10^-4 (moles)), 40.8%; in the assay with mast cells (10^-5 (moles)) it was 2.7%; with mast cells (10^-6 (moles)), 38.7%.
For `CC1(C)CCC2=C(C1)C(=O)c1c(NC(=O)C(=O)O)cccc1S2(=O)=O` [Example VI, Sodium 2,3-(4',4'-dimethylcyclohexeno)thiochromone-5-oxamate-1,1-dioxide], in the assay on PCA reaction, the inhibition at 30 mg/kg is 27%. Also, the ED50 in assay [1] (setting [2]) was 16.5 µmol/kg. The “Percent Inhibition of Mast Cell Histamine Release” value is listed as 95.1% in the assay on mast cells (10^-2 (moles)); 86.9% in the assay on mast cells (10^-3 (moles)); 44.1% in the assay on mast cells (10^-4 (moles)); 3.7% in the assay with mast cells (10^-5 (moles)); 4.4% with mast cells (10^-6 (moles)).
Regarding `CCC1CCc2oc3cccc(NC(=O)C(=O)O)c3c(=O)c2C1` (stereo not shown) [II, Sodium 2,3-(4'-ethylcyclohexeno)chromone-5-oxamate], the inhibition at 30 mg/kg with PCA reaction was determined as 46%. Moreover, in assay [1] (setting [2]), the ED50 is 15.5 µmol/kg.
Take `CC1(C)CCc2oc3cccc(NC(=O)C(=O)O)c3c(=O)c2C1` [III, Sodium 2,3-(4',4'-dimethylcyclohexeno)chromone-5-oxamate]: the inhibition at 30 mg/kg with PCA reaction worked out at 60%. The ED50 in assay [1] (setting [2]) amounted to 9.6 µmol/kg. Moreover, the “Percent Inhibition of Mast Cell Histamine Release” value in the assay on mast cells (10^-2 (moles)) worked out at 92.9%; in the assay with mast cells (10^-3 (moles)), 95.1%; with mast cells (10^-4 (moles)), 57.6%; in the assay on mast cells (10^-5 (moles)) it was 10.6%; with mast cells (10^-6 (moles)) it was 8.2%.
With `Cc1oc2cccc(NC(=O)C(=O)O)c2c(=O)c1C` [IV, Sodium 2,3-dimethylchromone-5-oxamate], the inhibition at 30 mg/kg with PCA reaction was found to be 39%. In assay [1] (setting [2]), the ED50 came out at 5 µmol/kg.
As to `O=C(O)c1cc(=O)c2c(OCC(O)COc3cccc4oc(C(=O)O)cc(=O)c34)cccc2o1` [SCG, sodium cromoglycate, reference compound], the ED50 in assay [1] (intravenous sodium cromoglycate positive control, run alongside each test compound, read-out: INHIBITION OF PCA REACTION IC50, SCG) stood at 3.6 µmol/kg. Further, in assay [1] (intravenous sodium cromoglycate positive control, run alongside each test compound), the “INHIBITION OF PCA REACTION IC50, SCG” value was 2.1 micromoles/kilogram and 1.8 micromoles/kilogram and 2.4 micromoles/kilogram.
In the case of `O=C1c2ccccc2S(=O)(=O)c2cc(-c3nnn[nH]3)ccc21` [doxantrazole, reference compound], the “Percent Inhibition of PCA Reaction” value with PCA reaction is “ten”.
Same read-out and setting: the value for `CCCc1c2c(c(O)c3c(=O)cc(C(=O)O)oc13)CCCC2` [proxicromil, reference compound] was “ten”.
